From ChEMBL document CHEMBL3351689, “The discovery of indole full agonists of the neurotensin receptor 1 (NTSR1)” (Bioorg Med Chem Lett, 2014) come the findings set out here.

The target of one assay is T1, Neurotensin receptor type 1 (Homo sapiens, UniProt P30989). Kind of assay: Agonist activity at NTSR1 (unknown origin) expressed in CHO cells assessed as potentiation of NT(8-13) peptide-induced change in intracellular Ca2+ level preincubated for 45 mins by FLIPR assay. It is filed as functional, cell-based.
T1 sequence (P30989 whole entry): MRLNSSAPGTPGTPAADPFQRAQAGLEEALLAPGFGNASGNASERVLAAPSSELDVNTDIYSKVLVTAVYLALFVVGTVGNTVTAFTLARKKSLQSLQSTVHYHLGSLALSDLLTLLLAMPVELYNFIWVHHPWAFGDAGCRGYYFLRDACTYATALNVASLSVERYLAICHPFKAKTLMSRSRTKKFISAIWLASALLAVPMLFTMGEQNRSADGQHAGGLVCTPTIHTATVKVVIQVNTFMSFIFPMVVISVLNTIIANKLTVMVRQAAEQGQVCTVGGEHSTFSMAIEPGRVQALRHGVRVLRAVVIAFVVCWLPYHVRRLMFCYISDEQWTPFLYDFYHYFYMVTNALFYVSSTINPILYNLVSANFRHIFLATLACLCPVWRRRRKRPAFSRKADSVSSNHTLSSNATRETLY
On to `CC(C)C[C@H](NC(=O)Cn1ccc2cc(-c3cccc4ccccc34)ccc21)C(=O)O`, for which the half-maximal effective concentration (EC50) came out at 3.26 µM. Still for that read-out and setting: under `C[C@H](NC(=O)Cn1ccc2cc(-c3cnc4ccccc4c3)ccc21)C(=O)O` stands over 100 µM; under `CC(C)C[C@@H](CO)NC(=O)Cn1ccc2cc(-c3cnc4ccccc4c3)ccc21`, over 100 µM.

As for `CC(C)C[C@@H](NC(=O)Cn1ccc2cc(-c3cnc4ccccc4c3)ccc21)C(=O)O`, the EC50 is over 100 µM. On the same count and under the same terms, then `CC(C)C[C@H](NC(=O)Cn1ccc2cc(-c3cnc4ccccc4c3)ccc21)c1nn[nH]n1`, with 5.17 µM; and `CC(C)C[C@H](NC(=O)Cn1ccc2cc(-c3ccccc3)ccc21)C(=O)O`, with 9.44 µM. The same measure, in the same setting: under `CC(C)C[C@H](NC(=O)Cn1ccc2ccc(-c3cccc4ccccc34)cc21)C(=O)O` stands 2.85 µM; under `CC(C)C[C@H](NC(=O)Cn1ccc2cc(N(Cc3ccnc4ccccc34)Cc3ccnc4ccccc34)ccc21)C(=O)O`, 2.12 µM; under `CC(C)[C@H](NC(=O)Cn1ccc2cc(-c3cnc4ccccc4c3)ccc21)C(=O)O`, over 100 µM.

For `O=C(O)CNC(=O)Cn1ccc2cc(-c3cnc4ccccc4c3)ccc21`, the EC50 is over 100 µM. For `CC(C)C[C@H](NC(=O)Cn1ccc2cc(-c3cnc4ccccc4c3)ccc21)C(=O)O`, the EC50 is 2.05 µM. Still for that read-out and setting: then `COC(=O)[C@H](CC(C)C)NC(=O)Cn1ccc2cc(-c3cnc4ccccc4c3)ccc21`, with over 100 µM; and `CC(C)C[C@H](NC(=O)Cn1ccc2cc(NS(=O)(=O)c3cccc4ccccc34)ccc21)C(=O)O`, with 9.39 µM.

In the case of `O=C(O)CNC(=O)Cn1ccc2cc(-c3cccc4ccccc34)ccc21`, the EC50 is over 100 µM. `CC(C)C[C@H](NC(=O)Cn1ccc2cc(-c3cncc4ccccc34)ccc21)C(=O)O`: the EC50 amounted to 3.24 µM. Still for that read-out and setting: then `CC(C)C[C@H](NC(=O)Cn1ccc2cc(-c3cccnc3)ccc21)C(=O)O`, with 15.4 µM; and `CC(C)C[C@H](NC(=O)Cn1ccc2ccc(-c3cncc4ccccc34)cc21)C(=O)O`, with 7.46 µM; and `CC(C)C[C@H](NC(=O)Cn1ccc2ccc(-c3cnc4ccccc4c3)cc21)C(=O)O`, with 3.28 µM. The same measure, in the same setting: under `CC(C)C[C@H](NC(=O)Cn1ccc2cc(NS(=O)(=O)c3cccc4cccnc34)ccc21)C(=O)O` stands 8.99 µM. Same read-out and setting: then `CC(C)[C@H](NC(=O)Cn1ccc2cc(-c3cccc4ccccc34)ccc21)C(=O)O`, with over 100 µM; and `COC(=O)[C@@H](CC(C)C)NC(=O)Cn1ccc2cc(-c3cccc4ccccc34)ccc21`, with over 100 µM. With `CC(C)C[C@H](NC(=O)Cn1ccc2ccccc21)C(=O)O`, the EC50 amounted to 6.65 µM. On to `COC(=O)[C@H](CC(C)C)NC(=O)Cn1ccc2cc(-c3cccc4ccccc34)ccc21`, for which the EC50 is over 100 µM. Still for that read-out and setting: then `CC(C)C[C@H](NC(=O)Cn1ccc2cc(-c3cccc4cnccc34)ccc21)C(=O)O`, with 4.96 µM; and `O=C(Cn1ccc2cc(-c3cnc4ccccc4c3)ccc21)N[C@@H](Cc1ccccc1)C(=O)O`, with 4.33 µM; and `CC(C)C[C@H](NC(=O)Cn1ccc2cc(Br)ccc21)C(=O)O`, with 9.99 µM. The same measure, in the same setting: under `COC(=O)[C@@H](CC(C)C)NC(=O)Cn1ccc2cc(-c3cnc4ccccc4c3)ccc21` stands over 100 µM; under `CC(C)C[C@H](NC(=O)Cn1ccc2cc(Nc3ccc4cnccc4c3)ccc21)C(=O)O`, 7.72 µM; under `CC(C)C[C@H](NC(=O)Cn1ccc2cc(NC(=O)c3ccnc4ccccc34)ccc21)C(=O)O`, 55.1 µM.

Turning to `CC(C)C[C@@H](NC(=O)Cn1ccc2cc(-c3cccc4ccccc34)ccc21)C(=O)O`, the EC50 is over 100 µM. For `CC(C)C[C@H](NC(=O)Cn1ccc2cc(N)ccc21)C(=O)O`, the EC50 was 25.8 µM. `COc1cccc(CC(=O)Nc2ccc3c(ccn3CC(=O)N[C@@H](CC(C)C)C(=O)O)c2)c1`: the EC50 stood at 24.2 µM.

The target of another assay is T1, Neurotensin receptor type 1. Kind of assay: Antagonist activity at NTSR1 (unknown origin) expressed in CHO cells assessed as inhibition of NT(8-13) peptide-induced change in intracellular Ca2+ level preincubated for 45 mins by FLIPR assay. It is filed as functional, cell-based.
On to `COc1cccc(OC)c1-c1cc(C(=O)NC2(C(=O)O)C3CC4CC(C3)CC2C4)nn1-c1ccnc2cc(Cl)ccc12` (centres undefined) [REMINERTANT], for which the IC50 was found to be 82 nM. On the same count and under the same terms, then `COc1cccc(OC)c1-c1cc(C(=O)NC2(C(=O)O)C3CC4CC(C3)CC2C4)nn1-c1ccc(C(=O)N(C)CCCN(C)C)cc1C(C)C` (centres undefined), with 4 nM.

One may read the EC50 as the concentration giving half of the maximal effect. In general, IC50 refers to the concentration that gives 50% inhibition.
